Source: patent US20190262261A1, “RADIATION SENSITIZER OR ANTI-CANCER CHEMOTHERAPY SENSITIZER” (priority 2006, published 2019)

Experiments:
[1] = Pain on subcutaneous injection in normal volunteers; type: in vivo, human; settings: 1 ml subcutaneous, pH 6.8, 0.5% hydrogen peroxide
Description: (2) Based on the above results, the following experiment was conducted on five normal volunteers.
When a 27-gage thin needle was used to subcutaneously inject 1 ml of physiological saline (pH 6.8) containing 0.5% hydrogen peroxide into the inside of the left arms of five normal volunteers, all complained of severe pain limited to the injection site that lasted about 1 hour.

[2] = Pain on intratumoral injection into SCCVII tumors of mice; type: in vivo, C3H/He mouse; settings: 1 ml, 27-gage needle, pH 6.8, 0.5% hydrogen peroxide, five mice per group, tumor about 10 mm
Description: (1) Mouse squamous epithelium cancer cells (SCCVII tumor cells) were transplanted into the right leg of the same kind of C3H/He mouse (8-week-old female), and the following experiment was conducted when the tumor had grown to about 10 mm in diameter.
When a 27-gage thin needle was used to intratumorally inject 1 ml of physiological saline (pH 6.8) containing 0.5% hydrogen peroxide into the tumors of five mice, the mice were all observed to feel strong pain, violently resisting the injection.

[3] = system: radioresistant osteosarcoma cell lines (HS-Os-1); settings: 0.1 mM in culture solution, radiation in the order of 10 Gy; cited from earlier work
[4] = system: inoperable locally advanced malignant melanoma
Description: For a case of inoperable locally advanced malignant melanoma, sterilized cut cotton soaked in a hydrogen peroxide solution having a concentration of approximately 3 weight percent was used as a bolus, and irradiation by an electron beam from a linear accelerator (radiosensitization therapy) was then conducted.
Specifically, sterilized cut cotton soaked in a hydrogen peroxide solution having a concentration of approximately 3% was applied to the affected area of the locally advanced malignant melanoma as a bolus, and irradiation was conducted three times a week for four weeks, with each radiation dose amounting to 4 Gy (12 times, for a total radiation dosage of 48 Gy).

- pain at the injection site ([1]; inside of arm, 27-gage needle, five volunteers): severe pain
- duration of pain at the injection site ([1]; left arm): about 1 hour
- pain of the intratumoral injection [2]: strong pain
Compound: OO [hydrogen peroxide]
- effect on irradiated cells (reactive oxygen species, apoptosis) [3]: giving rise to apoptosis
- length of malignant melanoma ([4]; 2 weeks after RT, approximately 3% solution on cut cotton as bolus, 4 Gy x 12, total 48 Gy, approximately 8 cm before radiotherapy): approximately 5 cm
- tumor outcome (summary in disclosure) ([4]; approximately 3 weight percent solution as bolus, 4 Gy three times a week, total 48 Gy): disappearance of the tumor
- tumor outcome ([4]; three months after termination of radiotherapy, approximately 3% solution as bolus, total 48 Gy): almost disappeared
